Assays:
[1] = tested on: insect effector caspase DRICE; assay: Caspase-like activity in insect cells (DEVD-aminoluciferin substrate); type: cell-based; conditions: 50 μg/mL
Protocol: The compound (6a) of the present application presents a mechanism of action distinct of the commercial insecticide chlorpyrifos, which may be of interest as a strategy to overcome pesticide resistances. Specifically, the compound (6a) is capable of activating insect effector caspase DRICE (involved in the process of cell death), while the commercial insecticide is unable to trigger this effect and has no impact in this target (FIG. 4). This was evaluated by incubating cells with the same cellular density with the proluminescent substrate DEVD-aminoluciferin, which becomes […] after cleavage by effector caspases, being detected subsequently in a luminescence detector.

human keratinocytes = assay: Viability of human keratinocytes (resazurin); type: cell-based; conditions: 50 μg/mL, 24 hours
Protocol: Results represent the mean±SEM of at least three independent experiments, each of them performed in triplicate: **<0.01, ***p<0.001.
The compound (6a) of the present application has no toxicity in human cells, contrarily to the ginkgolic acid (1), or the synthetic commercial insecticide evaluated as benchmark (chlorpyrifos) (FIG. 3), as assessed by cultivating human keratinocytes in the same cell density, exposing them to either compound (6a) or chlorpyrifos at the same concentration (50 μg/mL) and assessing cell viability after 24 hours using resazurin.

Sf9 cells [2] = conditions: Sf9 insect cells, 100 μg/mL, prior studies; cited from earlier work
Sf9 cells [3] = assay: Viability of Sf9 insect cells (resazurin); type: cell-based, Spodoptera frugiperda
Description: Results represent the mean+SEM of at least three independent experiments, each of them performed in triplicate: *p<0.05, **p<0.01, ***p<0.001.

Row | SMILES | caspase-like activity, increase over basal level [1] | loss of cell viability (human keratinocytes) | loss of viability (Sf9 cells [2]) | activity in Sf9 insect cells (compared with compound 1) (Sf9 cells [3]; Sf9 insect cells) | loss of cell viability relative to chlorpyrifos (Sf9 cells [3]; Spodoptera frugiperda cells, 100 μg/mL, 24 hours, resazurin)
1 | CCOP(=S)(OCC)Oc1nc(Cl)c(Cl)cc1Cl [chlorpyrifos, O,O-diethyl O-(3,5,6-trichloropyridin-2-yl) phosphorothioate] | no statistically significant changes | ca. 20% |  |  | 
2 | CCCCCCC=CCCCCCCCCCc1cccc(O)c1C(=O)O [compound 1, 2-(heptadec-10-en-1-yl)-6-hydroxybenzoic acid] | no increase |  | ca. 75% |  | 
3 | CCCCCCC=CCCCCCCCCCc1cccc(OC)c1C(=O)O [compound 2, 2-(heptadec-10-en-1-yl)-6-methoxybenzoic acid] |  |  |  | lower activity | 
4 | CCCCCCCCCCCCNc1ccccc1C(=O)O [compound 6a, 2-(dodecylamino) benzoic acid] | 400% |  |  |  | more than the triple
